Experimental data as given in ChEMBL document CHEMBL5360532, “Current scenario of quinolone hybrids with potential antibacterial activity against ESKAPE pathogens” (Eur J Med Chem, 2023).
In brackets after ≈: the same amount, converted by molar mass.

Columns and labels:
Escherichia coli [1] = assay: Antibacterial activity against Escherichia coli assessed as bacterial growth inhibition by agar cup diffusion assay; type: functional
Pseudomonas aeruginosa [2] = assay: Antibacterial activity against Pseudomonas aeruginosa assessed as bacterial growth inhibition by agar cup diffusion assay; type: functional
Aspergillus niger [3] = assay: Antifungal activity against Aspergillus niger assessed as fungal growth inhibition by agar cup diffusion assay; type: functional
Aspergillus fumigatus = assay: Antifungal activity against Aspergillus fumigatus assessed as fungal growth inhibition by agar cup diffusion assay; type: functional
Staphylococcus aureus [4] = assay: Antibacterial activity against Staphylococcus aureus assessed as bacterial growth inhibition by agar cup diffusion assay; type: functional
Staphylococcus aureus [5] = assay: Potency index, ratio of ciprofloxacin MIC to test compound MIC for antimicrobial activity against Staphylococcus aureus assessed as bacterial growth inhibition by agar cup diffusion assay; type: functional
Staphylococcus aureus [6] = assay: Antibacterial activity against Staphylococcus aureus assessed as bacterial growth inhibition by broth microdilution assay; type: functional
Escherichia coli [7] = assay: Antibacterial activity against Escherichia coli assessed as bacterial growth inhibition by broth microdilution assay; type: functional
Staphylococcus aureus [8] = assay: Potency index, ratio of norfloxacin MIC to test compound MIC for antimicrobial activity against Staphylococcus aureus assessed as bacterial growth inhibition measured after 18 to 24 hrs inhibition by broth microdilution assay; type: functional; conditions: time 18-24 hrs
Escherichia coli [9] = assay: Antibacterial activity against Escherichia coli ATCC 8739 assessed as bacterial growth inhibition by agar dilution method; type: functional
Klebsiella pneumoniae [10] = assay: Antibacterial activity against Klebsiella pneumoniae ATCC 10031 assessed as bacterial growth inhibition by agar dilution method; type: functional
Enterobacter cloacae = assay: Antibacterial activity against Enterobacter cloacae PTCC 1003 assessed as bacterial growth inhibition by agar dilution method; type: functional
Escherichia coli [11] = assay: Antibacterial activity against Escherichia coli assessed as bacterial growth inhibition by agar streak dilution assay; type: functional
Klebsiella pneumoniae [12] = assay: Antibacterial activity against Klebsiella pneumoniae assessed as bacterial growth inhibition by agar streak dilution assay; type: functional
Staphylococcus aureus [13] = assay: Antibacterial activity against Staphylococcus aureus assessed as bacterial growth inhibition by agar streak dilution assay; type: functional
Escherichia coli [14] = assay: Antibacterial activity against Escherichia coli ATCC 25922 assessed as bacterial growth inhibition measured after 24 hrs by agar disc diffusion assay; type: functional
Pseudomonas aeruginosa [15] = assay: Antibacterial activity against Pseudomonas aeruginosa ATCC 27853 assessed as bacterial growth inhibition measured after 24 hrs by agar disc diffusion assay; type: functional
Staphylococcus aureus [16] = assay: Antibacterial activity against Staphylococcus aureus ATCC 29213 assessed as bacterial growth inhibition measured after 24 hrs by agar disc diffusion assay; type: functional
Escherichia coli [17] = assay: Antibacterial activity against Escherichia coli ATCC 8739 assessed as bacterial growth inhibition measured after 18 to 24 hrs by two fold microdilution assay; type: functional; conditions: time 18-24 hrs
Klebsiella pneumoniae [18] = assay: Antibacterial activity against Klebsiella pneumoniae ATCC 13883 assessed as bacterial growth inhibition measured after 18 to 24 hrs by two fold microdilution assay; type: functional; conditions: time 18-24 hrs
Staphylococcus aureus [19] = assay: Antibacterial activity against Staphylococcus aureus ATCC 25923 assessed as zone of inhibition at 50 mg/ml by agar diffusion assay; type: functional; conditions: read-out: IZ
Escherichia coli [20] = assay: Antibacterial activity against Escherichia coli ATCC 25922 assessed as zone of inhibition at 50 mg/ml by agar diffusion assay; type: functional; conditions: read-out: IZ
Staphylococcus aureus [21] = assay: Antibacterial activity against Staphylococcus aureus clinical isolate assessed as zone of inhibition at 50 mg/ml by agar diffusion assay; type: functional; conditions: read-out: IZ
Escherichia coli [22] = assay: Antibacterial activity against Escherichia coli clinical isolate assessed as zone of inhibition at 50 mg/ml by agar diffusion assay; type: functional; conditions: read-out: IZ
Escherichia coli [23] = assay: Antibacterial activity against Escherichia coli assessed as bacterial growth inhibition by agar well diffusion assay; type: functional, organism-based
Pseudomonas aeruginosa [24] = assay: Antibacterial activity against Pseudomonas aeruginosa assessed as bacterial growth inhibition by agar well diffusion assay; type: functional, organism-based
Staphylococcus aureus [25] = assay: Antibacterial activity against Staphylococcus aureus assessed as bacterial growth inhibition by agar well diffusion assay; type: functional, organism-based
Aspergillus niger [26] = assay: Antifungal activity against Aspergillus niger assessed as fungal growth inhibition by agar well diffusion assay; type: functional
Candida albicans = assay: Antifungal activity against Candida albicans assessed as fungal growth inhibition by agar well diffusion assay; type: functional
Staphylococcus aureus [27] = assay: Antibacterial activity against Staphylococcus aureus ATCC 25923 assessed as bacterial growth inhibition measured after 18 to 24 hrs by agar dilution assay; type: functional; conditions: time 18-24 hrs
Staphylococcus aureus [28] = assay: Potency index, ratio of ciprofloxacin MIC to test compound MIC for antibacterial activity against Staphylococcus aureus ATCC 25923 assessed as bacterial growth inhibition measured after 18 to 24 hrs by agar dilution assay; type: functional; conditions: time 18-24 hrs
Klebsiella pneumoniae [29] = assay: Antibacterial activity against Klebsiella pneumoniae assessed as bacterial growth inhibition by agar cup diffusion assay; type: functional
[30] = tested on: Mycobacterium tuberculosis; assay: Antimycobacterial activity against Mycobacterium tuberculosis H37Rv assessed as bacterial growth inhibition by agar cup diffusion assay; type: functional
[31] = tested on: Mycobacterium tuberculosis; assay: Antimycobacterial activity against pan sensitive Mycobacterium tuberculosis R2012-123 assessed as bacterial growth inhibition by agar cup diffusion assay; type: functional
Escherichia coli [32] = assay: Potency index, ratio of ciprofloxacin MIC to test compound MIC for antimicrobial activity against Escherichia coli assessed as bacterial growth inhibition by agar cup diffusion assay; type: functional

Nc1ccc(-c2nnc(-c3cn(C4CC4)c4cc(N5CCNCC5)c(F)cc4c3=O)o2)c(O)c1
MIC (Escherichia coli [1]): 0.3 µg/mL (≈ 0.649 µM) | MIC (Pseudomonas aeruginosa [2]): 0.3 µg/mL (≈ 0.649 µM) | MIC (Aspergillus niger [3]): 9.8 µg/mL (≈ 21.2 µM) | MIC (Aspergillus fumigatus): 9.8 µg/mL (≈ 21.2 µM)

O=C(O)c1cn(C2CC2)c2cc(N3CCN(Cc4nnc(-c5cccc(O)c5)o4)CC3)c(F)cc2c1=O
MIC (Staphylococcus aureus [4]): 0.3 µg/mL (≈ 0.593 µM) | Ratio (Staphylococcus aureus [5]): >=4 | MIC (Staphylococcus aureus [6]): 0.125 µg/mL (≈ 0.247 µM) | MIC (Escherichia coli [7]): ≤ 0.125 µg/mL | Ratio (Staphylococcus aureus [8]): >=4

CC(=O)C(C(C)=O)C(=O)c1cn(C2CC2)c2cc(N3CCN(/N=N/c4nc(C)cc(C)n4)CC3)c(F)cc2c1=O
MIC (Escherichia coli [9]): 0.015 µg/mL (≈ 0.0274 µM) | MIC (Klebsiella pneumoniae [10]): 0.015 µg/mL (≈ 0.0274 µM) | MIC (Enterobacter cloacae): 0.015 µg/mL (≈ 0.0274 µM)

COc1c(N2CCN([S+]([O-])c3ccc(N)c(C)c3)C(C)C2)c(F)c(C)c2c(=O)c(C(=O)O)cn(C3CC3)c12 (configuration not stated)
MIC (Escherichia coli [11]): 0.9 µg/mL (≈ 1.66 µM) | MIC (Klebsiella pneumoniae [12]): 0.9 µg/mL (≈ 1.66 µM) | MIC (Staphylococcus aureus [13]): 0.9 µg/mL (≈ 1.66 µM)

COC(=O)[C@H](C)NC(=O)c1cc(=O)n(Cc2cn(C3O[C@H]4OC(C)(C)O[C@H]4[C@@H]4OC(C)(C)OC[C@@H]34)nn2)c2ccccc12 (some centres not stated)
MIC (Escherichia coli [14]): 9.75 µg/mL (≈ 16.3 µM) | MIC (Pseudomonas aeruginosa [15]): 9.75 µg/mL (≈ 16.3 µM) | MIC (Staphylococcus aureus [16]): 9.75 µg/mL (≈ 16.3 µM)

O=C(O)c1cn(C2CC2)c2cc(N3CCN(Cn4nc(CN5CCN(c6ccccc6)CC5)n(-c5ccccc5)c4=S)CC3)c(F)cc2c1=O
MIC (Escherichia coli [17]): 0.125 µg/mL (≈ 0.18 µM) | MIC (Klebsiella pneumoniae [18]): 0.125 µg/mL (≈ 0.18 µM)

CCn1c(CN2CCN(c3ccccc3)CC2)nn(CN2CCN(c3cc4c(cc3F)c(=O)c(C(=O)O)cn4C3CC3)CC2)c1=S
MIC (Escherichia coli [17]): 0.125 µg/mL (≈ 0.193 µM) | MIC (Klebsiella pneumoniae [18]): 0.125 µg/mL (≈ 0.193 µM)

COC(=O)c1cn(C2CC2)c2cc(N3CCN(C(=O)c4nnn(-c5ccc(SC)cc5)c4N)CC3)c(F)cc2c1=O
zone of inhibition at 50000 µg/mL (Staphylococcus aureus [19]): 26.3 mm | zone of inhibition at 50000 µg/mL (Escherichia coli [20]): 26.3 mm | zone of inhibition at 50000 µg/mL (Staphylococcus aureus [21]): 26.3 mm | zone of inhibition at 50000 µg/mL (Escherichia coli [22]): 26.3 mm

C#CCSc1nnc(-c2cn(CC)c3cc(N4CCN(C(=O)C(O)(CC(=O)O)CC(=O)O)CC4)c(F)cc3c2=O)o1
MIC (Escherichia coli [23]): 1.61 µg/mL (≈ 2.74 µM) | MIC (Pseudomonas aeruginosa [24]): 1.61 µg/mL (≈ 2.74 µM) | MIC (Staphylococcus aureus [25]): 1.61 µg/mL (≈ 2.74 µM) | MIC (Aspergillus niger [26]): 1.47 µg/mL (≈ 2.5 µM) | MIC (Candida albicans): 2.18 µg/mL (≈ 3.71 µM)

CCOC(=O)c1cn(C2CC2)c2cc(N3CCN(Cc4cn(-c5ccc(C(C)=O)cc5)nn4)CC3)c(F)cc2c1=O
MIC (Staphylococcus aureus [27]): 3.12 µg/mL (≈ 5.59 µM) | Ratio (Staphylococcus aureus [28]): 2

COC(=O)[C@H](C)NC(=O)c1cc(=O)n(Cc2cn([C@@H](NC(=O)c3ccccc3)C(=O)OC)nn2)c2ccccc12
MIC (Escherichia coli [14]): 19 µg/mL (≈ 34.8 µM) | MIC (Pseudomonas aeruginosa [15]): 19 µg/mL (≈ 34.8 µM) | MIC (Staphylococcus aureus [16]): 19 µg/mL (≈ 34.8 µM)

O=C(O)c1cn(C2CC2)c2cc(N3CCN(Cc4nnc(-c5ccc(O)cc5)o4)CC3)c(F)cc2c1=O
MIC (Staphylococcus aureus [4]): 0.2 µg/mL (≈ 0.396 µM) | Ratio (Staphylococcus aureus [5]): >=4 | MIC (Staphylococcus aureus [6]): 0.125 µg/mL (≈ 0.247 µM) | MIC (Escherichia coli [7]): ≤ 0.125 µg/mL | Ratio (Staphylococcus aureus [8]): >=4

Cc1c(F)c(N2CCNC(C)C2)cc2c1c(=O)c(C(=O)O)cn2C1CC1 (configuration not stated) [GREPAFLOXACIN]
MIC (Escherichia coli [11]): 0.5 µg/mL (≈ 1.39 µM) | MIC (Klebsiella pneumoniae [12]): 0.5 µg/mL (≈ 1.39 µM) | MIC (Staphylococcus aureus [13]): 0.5 µg/mL (≈ 1.39 µM)

C=CCn1c(SCC(=O)N2CCN(c3cc4c(cc3F)c(=O)c(C(=O)O)cn4C3CC3)CC2)nnc1-c1ccccc1
MIC (Escherichia coli [1]): 1.7 µg/mL (≈ 2.89 µM) | MIC (Klebsiella pneumoniae [29]): 1.7 µg/mL (≈ 2.89 µM) | MIC (Staphylococcus aureus [4]): 1.7 µg/mL (≈ 2.89 µM) | MIC [30]: 4 µg/mL (≈ 6.8 µM) | MIC [31]: 4 µg/mL (≈ 6.8 µM)

O=C(CN1CCN(c2cc3c(cc2F)c(=O)c(C(=O)O)cn3C2CC2)CC1)Nc1nnc(-c2ccccc2)s1
MIC (Escherichia coli [1]): 1.12 µg/mL (≈ 2.04 µM) | MIC (Pseudomonas aeruginosa [2]): 7.4 µg/mL (≈ 13.5 µM) | MIC (Klebsiella pneumoniae [29]): 1.12 µg/mL (≈ 2.04 µM) | MIC (Staphylococcus aureus [4]): 1.12 µg/mL (≈ 2.04 µM) | Ratio (Staphylococcus aureus [5]): 4.6 | Ratio (Escherichia coli [32]): 4.6 | MIC [30]: 8 µg/mL (≈ 14.6 µM) | MIC [31]: 8 µg/mL (≈ 14.6 µM)
